These results are taken from PMC5190008, “BO-1055, a novel DNA cross-linking agent with remarkable low myelotoxicity shows potent activity in sarcoma models” (Oncotarget, 2016).

Data set [1] concerns human CD34+ hematopoietic stem cells isolated from cord blood. Kind of data set: Colony forming unit (CFU) assay. Format: cell-based. The settings on record: concentration < 5μM. As for the experimental part:
We performed the colony forming unit (CFU) assays using human CD34+ hematopoietic stem cells isolated from cord blood to elucidate hematologic toxicity. We noted no effect on BFU-E, GM and mixed colonies at a concentration < 5μM of BO-1055 on CFU assay (Figure 2C).
Colony assays were performed in triplicate in 24 well plates using 1.2% methylcellulose (Dow Chemical, Waterloo, NY), 30% FCS, 57.2 μM β-mercaptoethanol, 2 mM glutamine, 0.5 mM hemin (Sigma, USA), 20 ng/mL interleukin 3 (IL-3), granulocyte colony stimulating factor (G-CSF), c-KIT ligand (KL) and 6 U/mL erythropoietin (Epo). IL-3 and KL and Epo were obtained from R and D Systems (Minneapolis, USA) and G-CSF was from Amgen (Thousand Oaks, CA). Colonies were scored 14 days after plating as per the protocol described earlier.

A further data set deals with A673 cells. Briefly: Annexin V-APC/7-AAD apoptosis flow cytometry. The format is cell-based, human. The note with it: A673, 48 h, 1μM. The source says: In order to quantify the apoptosis ratio in A673 cells treated with BO-1055 we performed Annexin V-APC/7-AAD staining assays. Early apoptosis was defined as the presence of Annexin V-positive and 7-AAD-negative cells. Late apoptosis was defined as Annexin V-positive and 7-AAD-positive cells. Total percent apoptosis was defined as the sum of early and late apoptotic cells as a percentage of the total cell number. BO-1055 induces apoptosis in the A673 cell line in a time-concentration dependent manner (Figure 3B). Around 50 % of treated cells entered apoptosis after 48 h at concentrations of 1μM.
Cell viability and apoptosis were determined using 7-AAD (BD Pharmingen, San Diego, CA) and Annexin V-APC (BD Pharmingen, San Diego, CA) staining according to the instructions provided by the manufacturer and as previously published. Cell cycle fractions were determined by propidium iodide nuclear staining. Briefly, cells were harvested, washed in PBS, fixed with 70% ethanol, and incubated with propidium iodide/RNase buffer (BD Biosciences, San Diego, CA) for 15 minutes at room temperature. Data was collected on BD LSR Fortessa fluorescence-activated cell analyzer using BD FACS Diva software and analyzed using FlowJo version 9.6 software (Tree Star, Inc. Ashland, OR). Cell cycle analysis was done by applying the Dean/Jett/Fox cell cycle model using FlowJo software.

Data set [2] has as its system A673, H526 and U20S cells. Kind of data set: Immunoblot analyses of DNA damage repair proteins. The format is cell-based, human. The note with it: 2μM, 6h and 24h. As to the method: Protein concentrations were determined using the BCA kit (Pierce Biotechnology, Rockford, IL) according to the manufacturer's instructions. Protein lysates (20-100 μg) were electrophoretically resolved by SDS/PAGE, transferred to nitrocellulose membrane, and probed with the indicated primary antibodies: Phospho-ATM (Ser1981) (D6H9) from rabbit (1:500, 5883, Cell Signaling, Danvers, MA), Phospho-BRCA1 (Ser1524) from rabbit (1:500, 9009, Cell Signaling), DNA-PK from rabbit (1:500, 4602, Cell Signaling), Mre11 (31H4) from rabbit (1:500, 4847, Cell Signaling) and Rad50 from rabbit (1:500, 3427, Cell Signaling). Membranes were then incubated with a 1:5,000 dilution of a peroxidase conjugated corresponding secondary antibody. Equal loading of the protein samples was confirmed by parallel western blots for β-actin (1:5,000, ab822750; Abcam). Detection was performed using the ECL-Enhanced Chemiluminescence Detection System (GE Healthcare Biosciences, Pittsburgh, PA) according to the manufacturer's instructions. Blots were visualized by autoradiography.
(In general: Immunoblotting shows a protein as a band on a membrane.)

The test system of another data set is A204 xenografts. Briefly: A204 xenografts in nude mice. Format: in vivo. As for the experimental part:
All mouse experiments were performed at the animal core facility at MSKCC under an approved protocol following the IACUC guidelines. Five to seven-week-old NOD/SCID IL2R gamma null (NSG) mice (bred at the Mouse Genetics Core Facility, MSKCC) were used for in vivo experiments. All mouse experiments were done following the IACUC guidelines at the animal facility at MSKCC. Tumors were induced using 10^6 A673 cells or A204 cells in 0.2ml 1:1 cellular medium, Matrigel matrix (BD Bioscience, Bedford, MA) and injected subcutaneously (s.q) into the right flank. The tumors were measured every 3 d with a caliper, and the diameters were recorded. Tumor volume was calculated by the formula a^2 b/2 where ‘a’ is the smallest and ‘b’ is the largest diameter. When the tumors reached 100mm^3, we randomized mice into control and drug treatment groups. Treatment groups received BO-1055 by tail vein injection at 10mg/kg, 20mg/kg and 30mg/kg q2d x 5 doses for mice bearing A673 xenografts. BO-1055 was given at 30mg/kg q2d x 5 doses for mice bearing A204 xenografts. De-identified patient tumor tissues were obtained in accordance with and approval from the MSKCC Institutional Review Board (IRB). Appropriate written consent and assent were obtained from the patients prior to sample collection. […]

For a further data set, the system named is leukemia cell lines. Also on record: method as in PMID 21106377. The settings on record: leukemia cell lines ref 6; cited from earlier work.
Details of data set [3]: method as in PMID 23353940. The note with it: rats, HPLC-PDA ref 7; cited from earlier work.

Molecules are shown by their SMILES.

Turning to `CN(C)CCNC(=O)c1cccc(NC(=O)Nc2ccc(N(CCCl)CCCl)cc2)c1` [BO-1055], in data set [1], the “effect on BFU-E, GM and mixed colonies” value is given as “no effect”. Also, the “treated cells entering apoptosis” value in the data set on A673 cells is “Around 50%”. In data set [2] (A673, H526 and U20S), the pATM result is on record as “activation of pATM”. Also, the pBRCA1 entry in data set [2] (U20S) is recorded as “upregulation of pBRCA1”. Moreover, in data set [2] (sensitive lines (A673, H526)), the Rad50 entry is given as “Upregulation of Rad50”. Also, the body weight result in the data set on A204 xenografts (30mg/kg q2d x 5) is “no significant decrease in body weight”. In the data set on A204 xenografts (30mg/kg q2d x 5, tail vein), the tumor response result is on record as “Complete regression of tumors”. In addition, in the data set with leukemia cell lines, the “cross resistance to taxol or vinblastine” value is “little or no cross resistance”. Moreover, in data set [3], the elimination entry is “slow elimination” and the tissue distribution result was “rapid distribution to all organs except brain”.
